Reference: patent US20040157867A1, “Pyrimidine phosphorylase as a target for imaging and therapy” (priority 2004, published 2004)
Like-named read-outs stand apart in the source and are kept apart here.

Columns and labels:
[1] = cited from earlier work
[2] = tested on: Dunning rat prostatic tumors; assay: 5-X-Ura incorporation into tumor DNA in vivo; settings: BrUra intravenously, tumors harvested 105 minutes after injection
Description: Dunning rat prostatic tumors were implanted (250,000 cells) subcutaneously in 3 rats. Two weeks post-implantation, the tumors had reached 7-20 g in size and the rats weighed about 250 g. At 2 weeks post-implantation, TPase was measured. BrUra was prepared in an aqueous solution, adjusted to pH 9 (the same formulation used clinically for its analog, FUra), and injected intravenously via a tail vein. The rats were sacrificed 105 minutes after the injection, and the tumors were harvested. DNA from the tumor was isolated, digested, and the nucleosides analyzed by HPLC (Klecker, 1994). BrdUrd was found in the DNA of the tumors, replacing 0.15% of the dThd bases.

U937 = assay: Growth inhibition of U937 tumor cells by BrUra; type: cell-based, human; settings: 72 hr
Description: (§1) The five human-derived tumor cell lines shown below were incubated with BrUra at concentrations from 0.5 to 4.5 mM for 72 hours. (Cell lines are available at the ATCC, Manassas, Va.) Separate incubations were conducted in the presence or absence of 50 μM dUrd. Growth inhibition was determined as a percentage of control values for cells incubated without BrUra or dUrd. Consistent with the experiments described in Example 8, co-incubation with dUrd increased cytotoxicity of BrUra in all groups. As expected from their high level of TPase expression, U937 were the only cells with notable toxicity at 0.5 mM, and also the greatest toxicity at 1.5 and 4.5 mM. CEM, MOLT4, and K562 were substantially less affected by incubation with BrUra, consistent with a low intracellular activation rate because of low TPase expression.
(§2) % Growth Inhibition, Based Upon Control Doubling Time=24 Hr. BrUra Concentrations Ranged from 0.5 to 4.5 mM. Incubations were Conducted for 72 Hr in the Presence or Absence of 50 μM ddUrd.

Raji = assay: Growth inhibition of Raji tumor cells by BrUra; type: cell-based, human; settings: 72 hr
Description: as §1, §2

K562 = assay: Growth inhibition of K562 tumor cells by BrUra; type: cell-based, human; settings: 72 hr
Description: as §1, §2

MOLT4 = assay: Growth inhibition of MOLT4 tumor cells by BrUra; type: cell-based, human; settings: 72 hr
Description: as §1, §2

TPase [3] = target: T1, TPase (Homo sapiens, UniProt P19971); assay: TPase inhibition in intact human hepatocytes ([3H]-Ura formation from [3H]-dUrd); type: cell-based; parameters: Cryopreserved human hepatocytes were procured from In Vitro Technologies, Inc; host or cells: cryopreserved human hepatocytes; settings: [3H]-dUrd 0.2 μM, one hour
T1 sequence (P19971 11-482): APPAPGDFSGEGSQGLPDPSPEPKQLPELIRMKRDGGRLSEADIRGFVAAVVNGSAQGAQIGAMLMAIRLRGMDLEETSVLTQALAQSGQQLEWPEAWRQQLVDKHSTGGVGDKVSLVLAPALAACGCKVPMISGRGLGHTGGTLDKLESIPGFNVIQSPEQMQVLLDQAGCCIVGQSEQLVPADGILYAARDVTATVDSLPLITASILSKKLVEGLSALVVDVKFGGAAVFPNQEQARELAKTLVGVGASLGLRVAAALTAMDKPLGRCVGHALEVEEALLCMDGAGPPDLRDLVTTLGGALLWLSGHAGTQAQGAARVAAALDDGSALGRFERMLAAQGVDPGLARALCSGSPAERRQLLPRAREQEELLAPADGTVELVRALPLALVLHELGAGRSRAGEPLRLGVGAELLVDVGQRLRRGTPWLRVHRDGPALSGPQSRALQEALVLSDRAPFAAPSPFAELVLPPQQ
Description: Cryopreserved human hepatocytes were procured from In Vitro Technologies, Inc. (Catonsville, Md.) and processed according to the supplier's instructions. TPase activity was monitored for one hour by measuring formation of [^3H]-Ura from [^3H]-dUrd, 0.2 μM. Co-incubation of tritiated dUrd with 100 μM BrUra inhibited TPase by 48%, and 500 μM of BrUra inhibited TPase by 85%.

CEM = assay: Growth inhibition of CEM tumor cells by BrUra; type: cell-based, human; settings: 72 hr
Description: as §1, §2

TPase [4] = target: T1, TPase; assay: TPase inhibition in tumor cells co-incubated with human liver cytosol ([3H]-dThd incorporation into DNA); type: cell-based; settings: BrUra 500 μM, U-937 or MOLT-4 cells with human liver cytosol (S100), 5-35% without BrUra
Description: [^3H]-dThd (0.02 μM) or [^3H]-dUrd (0.1 μM) was incubated with either U-937 or MOLT-4 tumor cells, and incorporation of [[…] into DNA was measured after 3 hours. Cytosol (S100) was prepared from human liver by differential centrifugation. This cytosol, which contains TPase, was co-incubated with U-937 or MOLT4 tumor cells to simulate the degradation of pyrimidine nucleosides in the body. Incorporation of [^3H]-dThd into DNA was decreased to 5-35% of baseline levels. When BrUra (500 μM) was also added to the incubation mixture, TPase inhibition was observed as increased incorporation of [^3H]-dThd in DNA, back to 39-89% of baseline levels.

U-937 cells = assay: Enhancement of BrUra trapping into DNA by dR-1-P prodrugs; type: cell-based, human; settings: 24 hours, 20 μM BrUra and 20 μM deoxyribonucleoside
Description: The effect of dR-1-P prodrugs was examined in U-937 cells. Cells were incubated for 24 hours with 20 μM BrUra and 20 μM of six different deoxyribonucleosides. The use of prodrugs for dR-1-P is described as a way of driving the reaction catalyzed by TPase in the direction of thymidine production. As illustrated in the bar chart, in FIG. 3, the maximum enhancement of BrUra trapping in DNA was 24-fold, for dUrd. An increase of 6-fold was found for dIno.

[5] = tested on: U-937 cells implanted subcutaneously in nude mice; assay: Incorporation of [3H]-BrUra into tumor DNA in vivo, modulation with eniluracil; settings: eniluracil 2 mg/kg i.p. thirty minutes prior to i.v. [3H]-BrUra, 24 hours
Description: U-937 cells (ATCC; Manassas, Va.) were implanted subcutaneously in nude mice. When tumors grew to about 0.5 gram, [^3H]-BrUra was injected i.v. One set of mice received eniluracil, 2 mg/kg, injected i.p. thirty minutes prior to i.v. [3H]-BrUra, and the other set received no treatment prior to [^3H]-BrUra i.v. Both sets of mice were killed 24 hours later, and tumors and blood removed. DNA from tumors was extracted and analyzed using our established techniques (Klecker et al., 1994). [^3H]-BrdUrd was found in DNA in tumors by radiochromatography, indicating conversion of [^3H]-BrUra in vivo, similar to our results for cell culture.

O=c1[nH]cc(F)c(=O)[nH]1 [5-FUra, 5-fluorouracil]
increase in 5-FUra exposure ([1]; presence versus absence of eniluracil): 50- to 100 fold | Plasma clearance of 5-FUra ([1]; with eniluracil): 0.1 L/min | recovered unchanged in the urine ([1]; with eniluracil): 77% | tolerated dose upon continuous dosing ([1]; with eniluracil): 2 mg/day per square meter of body surface | Plasma clearance of 5-FUra ([1]; without eniluracil): 5.0 L/min | recovered unchanged in the urine ([1]; without eniluracil): less than 10%

O=c1[nH]cc(Br)c(=O)[nH]1 [BrUra, bromouracil]
BrdUrd found in DNA of the tumors, replacing dThd bases [2]: 0.15% | % Growth Inhibition (U937; U937, BrUra 0.5 mM, with 50 μM dUrd): 28% | % Growth Inhibition (U937; U937, BrUra 0.5 mM, without dUrd): 16% | % Growth Inhibition (U937; U937, BrUra 1.5 mM, with 50 μM dUrd): 77% | % Growth Inhibition (U937; U937, BrUra 1.5 mM, without dUrd): 47% | % Growth Inhibition (U937; U937, BrUra 4.5 mM, with 50 μM dUrd): 100% | % Growth Inhibition (U937; U937, BrUra 4.5 mM, without dUrd): 100% | % Growth Inhibition (Raji; BrUra 0.5 mM, with 50 μM dUrd): 9% | % Growth Inhibition (Raji; BrUra 0.5 mM, without dUrd): 2% | % Growth Inhibition (Raji; BrUra 1.5 mM, with 50 μM dUrd): 24% | % Growth Inhibition (Raji; BrUra 1.5 mM, without dUrd): 27% | % Growth Inhibition (Raji; BrUra 4.5 mM, with 50 μM dUrd): 67% | % Growth Inhibition (Raji; BrUra 4.5 mM, without dUrd): 65% | % Growth Inhibition (K562; K562, BrUra 0.5 mM, with 50 μM dUrd): −6% | % Growth Inhibition (K562; K562, BrUra 0.5 mM, without dUrd): −7% | % Growth Inhibition (K562; K562, BrUra 1.5 mM, with 50 μM dUrd): 28% | % Growth Inhibition (K562; K562, BrUra 1.5 mM, without dUrd): 13% | % Growth Inhibition (K562; K562, BrUra 4.5 mM, with 50 μM dUrd): 77% | % Growth Inhibition (K562; K562, BrUra 4.5 mM, without dUrd): 57% | % Growth Inhibition (MOLT4; MOLT4, BrUra 0.5 mM, with 50 μM dUrd): 8% | % Growth Inhibition (MOLT4; MOLT4, BrUra 0.5 mM, without dUrd): 6% | % Growth Inhibition (MOLT4; MOLT4, BrUra 1.5 mM, with 50 μM dUrd): 25% | % Growth Inhibition (MOLT4; MOLT4, BrUra 1.5 mM, without dUrd): 26% | % Growth Inhibition (MOLT4; MOLT4, BrUra 4.5 mM, with 50 μM dUrd): 85% | % Growth Inhibition (MOLT4; MOLT4, BrUra 4.5 mM, without dUrd): 66% | TPase inhibition (TPase [3]; 100 μM BrUra): 48% | TPase inhibition (TPase [3]; 500 μM BrUra): 85% | % Growth Inhibition (CEM; BrUra 0.5 mM, with 50 μM dUrd): 13% | % Growth Inhibition (CEM; BrUra 0.5 mM, without dUrd): 6% | % Growth Inhibition (CEM; BrUra 1.5 mM, with 50 μM dUrd): 65% | % Growth Inhibition (CEM; BrUra 1.5 mM, without dUrd): 23% | % Growth Inhibition (CEM; BrUra 4.5 mM, with 50 μM dUrd): 95% | % Growth Inhibition (CEM; BrUra 4.5 mM, without dUrd): 89% | incorporation of [3H]-dThd in DNA, of baseline levels (TPase [4]): 39-89%

OC[C@H]1O[C@@H](n2cnc3c(O)ncnc32)C[C@@H]1O [dIno, deoxyinosine]
enhancement of BrUra trapping in DNA (U-937 cells): 6 fold

O=c1ccn([C@H]2C[C@H](O)[C@@H](CO)O2)c(=O)[nH]1 [dUrd]
enhancement of BrUra trapping in DNA (U-937 cells): 24 fold

C#Cc1c[nH]c(=O)[nH]c1=O [eniluracil]
increase of incorporation of radioactivity into DNA from [3H]-BrUra [5]: five-fold
